pKi: −log10 of the molar value.
Assays:
Assay type in all cases: biochemical
[1] = target: Aurora-B (Homo sapiens, UniProt Q96GD4); assay: Aurora B (Aurora-1) Inhibition Assay, 33P incorporation; conditions: enzyme inhibition data (Ki), Table 11; read-out: AurB Ki
Description: An assay buffer solution is prepared which consists of 25 mM HEPES (pH 7.5), 10 mM MgCl2, 0.1% BSA and 10% glycerol. A 22 nM Aurora-B solution, also containing 1.7 mM DTT and 1.5 mM Kemptide (LRRASLG), is prepared in assay buffer. To 22 μL of the Aurora-B solution, in a 96-well plate, is added 2 μl of a compound stock solution in DMSO and the mixture is allowed to equilibrate for 10 minutes at 25° C. The enzyme reaction is initiated by the addition of 16 μl stock [γ-^33P]-ATP solution (˜20 nCi/μL) prepared in assay buffer, to a final assay concentration of 800 μM. The reaction is stopped after 3 hours by the addition of 16 μL 500 mM phosphoric acid and the levels of ^33P incorporation into the peptide substrate is determined by the following method.
A phosphocellulose 96-well plate (Millipore, Cat no. MAPHNOB50) is pre-treated with 100 μL of a 100 mM phosphoric acid prior to the addition of the enzyme reaction mixture (40 μL). The solution is left to soak on to the phosphocellulose membrane for 30 minutes and the plate subsequently is washed four times with 200 μL of a 100 mM phosphoric acid. To each well of the dry plate is added 30 μL of Optiphase ‘SuperMix’ liquid scintillation cocktail (Perkin Elmer) prior to scintillation counting (1450 Microbeta Liquid Scintillation Counter, Wallac). Levels of non-enzyme catalysed background radioactivity are determined by adding 16 μL of the 500 mM phosphoric acid to control wells, containing all assay components (which acts to denature the enzyme), prior to the addition of the [γ-^33P]-ATP solution. Levels of enzyme catalysed ^33P incorporation are calculated by subtracting mean background counts from those measured at each inhibitor concentration. For each Ki determination 8 data points, typically covering the concentration range 0-10 μM compound, are obtained in duplicate (DMSO stocks are prepared from an initial compound stock of 10 mM with subsequent 1:2.5 serial dilutions). Ki values are calculated from initial rate data by non-linear regression using the Prism software package (Prism 3.0, Graphpad Software, San Diego, Calif.).

[2] = target: T1, Aurora-2 (Homo sapiens, UniProt O14965); assay: Aurora-A (Aurora-2) Inhibition Assay, coupled enzyme assay; conditions: enzyme inhibition data (Ki), Table 11; read-out: AurA Ki
T1 sequence (O14965 1-403): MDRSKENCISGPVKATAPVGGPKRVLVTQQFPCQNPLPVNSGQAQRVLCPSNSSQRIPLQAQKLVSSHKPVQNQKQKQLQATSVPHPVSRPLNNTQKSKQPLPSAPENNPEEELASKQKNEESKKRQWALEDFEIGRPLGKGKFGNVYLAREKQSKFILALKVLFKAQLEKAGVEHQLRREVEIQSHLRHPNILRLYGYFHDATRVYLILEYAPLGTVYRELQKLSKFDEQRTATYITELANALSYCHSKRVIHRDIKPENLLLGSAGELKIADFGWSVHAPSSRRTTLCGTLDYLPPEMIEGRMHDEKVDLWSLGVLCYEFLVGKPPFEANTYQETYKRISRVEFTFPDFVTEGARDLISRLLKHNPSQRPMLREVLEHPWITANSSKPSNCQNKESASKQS
How it was run: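 Coupled pyruvate kinase/lactate dehydrogenase assay following NADH, pH 7.5 Hepes, 40 nM Aurora-2, 400 μM ATP and 570 μM Kemptide at 30 °C. Compound (top final typically 7.5 μM) preincubated 10 min; initial rates over 10 min; IC50 and Ki by non-linear regression.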

[3] = target: c-Met (Homo sapiens, UniProt P08581); assay: c-Met Inhibition Assay, coupled enzyme system; conditions: enzyme inhibition data (Ki), Table 11
Chain of c-Met (P08581 25-1390): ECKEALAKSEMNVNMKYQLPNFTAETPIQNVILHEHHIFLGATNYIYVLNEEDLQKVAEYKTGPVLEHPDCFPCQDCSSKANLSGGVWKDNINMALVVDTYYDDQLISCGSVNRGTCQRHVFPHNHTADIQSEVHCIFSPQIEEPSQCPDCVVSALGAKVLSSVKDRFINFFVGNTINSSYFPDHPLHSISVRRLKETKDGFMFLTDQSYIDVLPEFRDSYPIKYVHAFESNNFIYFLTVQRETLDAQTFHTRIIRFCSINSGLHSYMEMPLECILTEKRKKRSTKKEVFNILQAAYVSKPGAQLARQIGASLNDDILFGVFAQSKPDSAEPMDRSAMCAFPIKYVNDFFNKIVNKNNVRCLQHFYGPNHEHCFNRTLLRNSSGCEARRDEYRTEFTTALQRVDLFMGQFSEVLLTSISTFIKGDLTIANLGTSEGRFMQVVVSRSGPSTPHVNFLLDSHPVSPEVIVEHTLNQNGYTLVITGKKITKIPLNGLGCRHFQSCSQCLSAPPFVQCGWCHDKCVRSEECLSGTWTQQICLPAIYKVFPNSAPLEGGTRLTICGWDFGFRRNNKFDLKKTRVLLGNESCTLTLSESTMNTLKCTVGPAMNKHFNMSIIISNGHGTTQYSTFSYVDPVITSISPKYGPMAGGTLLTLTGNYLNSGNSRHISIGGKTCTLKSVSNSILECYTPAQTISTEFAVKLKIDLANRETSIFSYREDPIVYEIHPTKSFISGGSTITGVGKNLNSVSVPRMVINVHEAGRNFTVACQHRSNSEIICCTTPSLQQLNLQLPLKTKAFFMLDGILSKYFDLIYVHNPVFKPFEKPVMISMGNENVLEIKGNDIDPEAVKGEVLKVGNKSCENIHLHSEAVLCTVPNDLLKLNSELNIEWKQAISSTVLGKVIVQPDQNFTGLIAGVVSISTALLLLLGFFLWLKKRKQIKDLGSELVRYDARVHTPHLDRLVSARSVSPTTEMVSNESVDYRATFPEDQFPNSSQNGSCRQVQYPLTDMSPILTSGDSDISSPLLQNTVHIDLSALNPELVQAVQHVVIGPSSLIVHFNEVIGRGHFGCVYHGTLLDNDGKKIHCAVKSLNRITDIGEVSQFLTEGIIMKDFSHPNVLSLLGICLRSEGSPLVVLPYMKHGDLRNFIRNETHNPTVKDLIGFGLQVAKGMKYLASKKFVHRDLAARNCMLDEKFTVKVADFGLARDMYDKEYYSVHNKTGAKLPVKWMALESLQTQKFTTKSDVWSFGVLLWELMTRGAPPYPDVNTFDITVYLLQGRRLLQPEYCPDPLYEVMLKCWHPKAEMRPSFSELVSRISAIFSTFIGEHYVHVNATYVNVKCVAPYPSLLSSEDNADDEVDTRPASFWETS
How it was run: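 Pyruvate kinase/lactate dehydrogenase-coupled NADH assay in HEPES pH 7.5 with 80 nM c-Met, 200 μM ATP and 10 μM polyGluTyr at 30° C. Compound (0.006–12.5 μM final, 12-point) preincubated 10 min before ATP start; rates over 10 min gave Ki.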

Chain of Aurora-B (Q96GD4 whole entry): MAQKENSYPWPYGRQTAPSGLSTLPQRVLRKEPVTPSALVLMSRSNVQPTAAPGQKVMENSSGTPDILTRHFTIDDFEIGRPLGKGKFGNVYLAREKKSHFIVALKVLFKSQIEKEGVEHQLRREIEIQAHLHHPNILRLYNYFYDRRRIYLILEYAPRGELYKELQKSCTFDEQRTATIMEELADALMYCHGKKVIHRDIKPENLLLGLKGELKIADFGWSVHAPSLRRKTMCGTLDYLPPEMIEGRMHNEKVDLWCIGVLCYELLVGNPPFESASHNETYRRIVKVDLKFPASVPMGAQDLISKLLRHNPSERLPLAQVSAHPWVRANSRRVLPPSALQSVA

SMILES | pKi [1] | pKi [2] | pKi [3]
Cc1cnc2c(-c3cc(NC(C)C)ncn3)c(N)nn2c1 [Compound V-273] | 5.30 to 6.30 | 5.30 to 6.30 | > 6.30
Nc1nn2cc(-c3ccc(C(=O)N4CCC(N)C4)cn3)cnc2c1-c1ccccn1 (stereo not drawn) [Compound V-81] |  | > 6.30 | > 6.30
Cc1cnc2c(-c3cc(NC4CC4)ncn3)c(N)nn2c1 [Compound V-289] |  | 5.30 to 6.30 | > 6.30
CCN1CCN(C(=O)c2ccc(-c3cnc4c(-c5ccccn5)c(N)nn4c3)nc2)CC1 [Compound V-63] |  | > 6.30 | > 6.30
CC[C@H](C)Nc1cc(-c2c(N)nn3cc(C)cnc23)ncn1 [Compound V-294] |  | 5.30 to 6.30 | > 6.30
Cc1cnc2c(-c3cc(NC4CCN(Cc5ccccc5)CC4)ncn3)c(N)nn2c1 [Compound V-285] |  | 5.30 to 6.30 | > 6.30
CCN(C)C(=O)c1ccc(-c2cnc3c(-c4ccccn4)c(N)nn3c2)nc1 [Compound V-89] |  | > 6.30 | > 6.30
COc1ccccc1Nc1cc(-c2c(N)nn3cc(C)cnc23)ncn1 [Compound V-274] | 5.30 to 6.30 | 5.30 to 6.30 | > 6.30
CCCN(CCCN)C(=O)c1ccc(-c2cnc3c(-c4ccccn4)c(N)nn3c2)nc1 [Compound V-85] |  | 5.30 to 6.30 | > 6.30
Nc1nn2cc(-c3ccc(C(=O)N4CCC[C@@H](O)C4)cn3)cnc2c1-c1ccccn1 [Compound V-79] |  | > 6.30 | > 6.30
Cc1cnc2c(-c3cc(NC4CCN(Cc5ccccc5)C4)ncn3)c(N)nn2c1 (stereo not drawn) [Compound V-286] |  | 5.30 to 6.30 | > 6.30
Cc1cnc2c(-c3cc(N[C@H](C)CO)ncn3)c(N)nn2c1 [Compound V-293] |  | 5.30 to 6.30 | > 6.30
Cc1cnc2c(-c3cc(N4CCCCC4)ncn3)c(N)nn2c1 [Compound V-276] |  | 5.30 to 6.30 | > 6.30
Nc1nn2cc(N3CCOCC3)cnc2c1-c1ccccn1 [Compound V-57] |  | 5.30 to 6.30 | > 6.30
Cc1cnc2c(-c3cc(NC4CCCCC4)ncn3)c(N)nn2c1 [Compound V-291] |  | 5.30 to 6.30 | > 6.30
CCOC(=O)c1c(N)nn2cc(-c3ccc(Cl)cc3)cnc12 [Compound V-24] |  | 5.30 to 6.30 | 5.30 to 6.30
CN(C)CCNC(=O)c1cccc(-c2cnc3c(-c4ccccn4)c(N)nn3c2)c1 [Compound V-54] |  | 5.30 to 6.30 | > 6.30
CN(C)CCNC(=O)c1ccc(-c2cnc3c(-c4ccccn4)c(N)nn3c2)nc1 [Compound V-65] |  | 5.30 to 6.30 | > 6.30
Nc1nn2cc(-c3ccc(C(=O)N4CCSCC4)cn3)cnc2c1-c1ccccn1 [Compound V-87] |  | > 6.30 | > 6.30
C#CCN(C)C(=O)c1ccc(-c2cnc3c(-c4ccccn4)c(N)nn3c2)nc1 [Compound V-72] |  | > 6.30 | > 6.30
CC(C)N1CCN(c2ccc(-c3cnc4c(-c5ccccn5)c(N)nn4c3)cc2)CC1 [Compound V-51] |  | 5.30 to 6.30 | > 6.30
CCN1CCN(C(=O)c2ccc(-c3cnc4c(-c5ccccn5)c(N)nn4c3)nc2)C(O)C1 (stereo not drawn) [Compound V-78] |  | > 6.30 | > 6.30
CN1CCCN(C(=O)c2ccc(-c3cnc4c(-c5ccccn5)c(N)nn4c3)nc2)CC1 [Compound V-70] |  | > 6.30 | > 6.30
CSc1cc(-c2c(N)nn3cc(C)cnc23)ncn1 [Compound V-281] |  | 5.30 to 6.30 | > 6.30
COc1ccc(-c2cnc3c(C#N)c(N)nn3c2)cc1 [Compound V-2] |  | 5.30 to 6.30 | 5.30 to 6.30

Second part, the compound after the results:

pKi [1] | pKi [2] | pKi [3] | SMILES
 | 5.30 to 6.30 | > 6.30 | Nc1nn2cc(-c3ccc(C(=O)NCCF)cn3)cnc2c1-c1ccccn1 [Compound V-73]
 | > 6.30 | > 6.30 | COCCN1CCN(C(=O)c2ccc(-c3cnc4c(-c5ccccn5)c(N)nn4c3)nc2)CC1 [Compound V-68]
 | > 6.30 | 5.30 to 6.30 | Nc1nn2cc(Cl)cnc2c1-c1ccccn1 [Compound V-280]
 | > 6.30 | > 6.30 | CC(C)N(C)C(=O)c1ccc(-c2cnc3c(-c4ccccn4)c(N)nn3c2)nc1 [Compound V-67]
 | > 6.30 | > 6.30 | COC(=O)N1CCN(C(=O)c2ccc(-c3cnc4c(-c5ccccn5)c(N)nn4c3)nc2)CC1 [Compound V-64]
 | 5.30 to 6.30 | > 6.30 | COc1ccncc1-c1cnc2c(-c3ccccn3)c(N)nn2c1 [Compound V-22]
 | > 6.30 | > 6.30 | Nc1nn2cc(-c3ccc(C(=O)N4CCC(CCO)CC4)cn3)cnc2c1-c1ccccn1 [Compound V-83]
 | 5.30 to 6.30 | > 6.30 | Cc1cnc2c(-c3cc(NCC4CC4)ncn3)c(N)nn2c1 [Compound V-277]
 | 5.30 to 6.30 | 5.30 to 6.30 | CCN(C(=O)c1c(N)nn2cc(-c3ccncn3)cnc12)C(C)C [Compound V-33]
 | 5.30 to 6.30 | > 6.30 | Cc1cnc2c(-c3cc(N[C@@H](C)CO)ncn3)c(N)nn2c1 [Compound V-295]
 | > 6.30 | > 6.30 | Cc1cnc2c(-c3cc(Nc4ccccc4)ncn3)c(N)nn2c1 [Compound V-279]
 | > 6.30 | > 6.30 | CCCN(CCO)C(=O)c1ccc(-c2cnc3c(-c4ccccn4)c(N)nn3c2)nc1 [Compound V-92]
 | > 6.30 | > 6.30 | COCCN(C)C(=O)c1ccc(-c2cnc3c(-c4ccccn4)c(N)nn3c2)nc1 [Compound V-75]
 | > 6.30 | > 6.30 | CCN(CCC#N)C(=O)c1ccc(-c2cnc3c(-c4ccccn4)c(N)nn3c2)nc1 [Compound V-90]
 | 5.30 to 6.30 | > 6.30 | Cc1cnc2c(-c3cc(NC4CCC4)ncn3)c(N)nn2c1 [Compound V-290]
 | 5.30 to 6.30 | > 6.30 | Cc1cnc2c(-c3cc(NCC4CCCO4)ncn3)c(N)nn2c1 (stereo not drawn) [Compound V-278]
 | 5.30 to 6.30 | > 6.30 | CN(CCN)C(=O)c1ccc(-c2cnc3c(-c4ccccn4)c(N)nn3c2)nc1 [Compound V-94]
 | 5.30 to 6.30 | > 6.30 | Nc1nn2cc(-c3ccc(C(=O)N4CCC4)cn3)cnc2c1-c1ccccn1 [Compound V-86]
 | 5.30 to 6.30 | > 6.30 | Nc1nn2cc(-c3ccc(C(=O)N4CCCCC4CCO)cn3)cnc2c1-c1ccccn1 (stereo not drawn) [Compound V-82]
 | 5.30 to 6.30 | > 6.30 | CCN(CCCCN)C(=O)c1ccc(-c2cnc3c(-c4ccccn4)c(N)nn3c2)nc1 [Compound V-74]
 | > 6.30 | > 6.30 | CCOC(=O)N1CCN(C(=O)c2ccc(-c3cnc4c(-c5ccccn5)c(N)nn4c3)nc2)CC1 [Compound V-76]
 | > 6.30 | > 6.30 | Nc1nn2cc(-c3ccc(C(=O)N4CCC[C@@H]4CO)cn3)cnc2c1-c1ccccn1 [Compound V-93]
 | > 6.30 | > 6.30 | Nc1nn2cc(-c3ccc(C(=O)N4CCCC(CO)C4)cn3)cnc2c1-c1ccccn1 (stereo not drawn) [Compound V-71]
 | 5.30 to 6.30 | > 6.30 | CCN(CCN)C(=O)c1ccc(-c2cnc3c(-c4ccccn4)c(N)nn3c2)nc1 [Compound V-62]
 | 5.30 to 6.30 | > 6.30 | CN1CCN(C(=O)c2cccc(-c3cnc4c(-c5ccccn5)c(N)nn4c3)c2)CC1 [Compound V-55]

Source: US7528138B2, “Pyrazolo[1,5-a]pyrimidines useful as inhibitors of protein kinases” (Vertex Pharmaceuticals Incorporated, priority 2004, dated 2009)
